Data: patent US9376436B2, “2-(pyridin-2yl)-1, 7-diaza-spiro [4.4] nonane-6-one compound as voltage-gated sodium channels modulators” (CONVERGENCE PHARMACEUTICALS LIMITED, priority 2011, dated 2016)
Counter-ions that a name gives are not always drawn. Like-named read-outs stand apart in the source and are kept apart here.

Target: T1, hNaV1.7 (Homo sapiens, UniProt Q15858)
T1 construct: expressed in transfected cells; host or cells: HEK293
Experiment: QPatch NaV1.7 assay (whole-cell patch clamp, QPatch16x)
Type: cell-based
Details: HEK293-hNaV1.7 cells
Experimental: The compounds of the invention were tested in a QPatch NaV1.7 assay.
HEK293-hNaV1.7 cells were grown in DMEM-F12+10% FBS culture media at 37° C. At a confluency of 50-70% cells were dissociated from culture flasks & triturated to ensure unicellular cell suspension; cell density was measured & adjusted to 2-3×10^6 cells/ml. Recordings were obtained using QPatch16x. The external solution was (in mM): NaCl, 128; KCl, 5; MgCl2, 2; CaCl2, 2; Glucose, 30; HEPES, 15; pH 7.3, 305-315 mOsm. Following seal formation and whole-cell access using internal solution (containing in mM: CsF, 135; EGTA/CsOH, 1/5; HEPES 10; NaCl, 10; pH 7.3, 310-320 mOsM), voltage pulse protocols were applied. Initially a steady state inactivation voltage protocol was used to determine the half-maximal voltage for steady state inactivation (V1/2 SSI). Two holding voltages were used to determine test drug inhibition: −90 mV, where most of the channels are in a closed state; and V1/2 SSI, where half of the channels are inactivated. Currents were elicited […] by stepping to a membrane potential of 0 mV for 20 ms. Four-point cumulative concentration responses were derived by determining the peak current amplitude at each concentration of test drug over 120 second application. Curves were fitted with the Hill equation yielding pIC50 values at −90 mV and V1/2 SSI holding potentials.

[1] = holding voltage V1/2 SSI (half of channels inactivated), read-out: QP Nav1.7 SSI vhalf pIC50 (converted)
[2] = holding voltage −90 mV (most channels closed), read-out: QP Nav1.7 −90 mV pIC50 (converted)

T1 sequence (Q15858 whole entry): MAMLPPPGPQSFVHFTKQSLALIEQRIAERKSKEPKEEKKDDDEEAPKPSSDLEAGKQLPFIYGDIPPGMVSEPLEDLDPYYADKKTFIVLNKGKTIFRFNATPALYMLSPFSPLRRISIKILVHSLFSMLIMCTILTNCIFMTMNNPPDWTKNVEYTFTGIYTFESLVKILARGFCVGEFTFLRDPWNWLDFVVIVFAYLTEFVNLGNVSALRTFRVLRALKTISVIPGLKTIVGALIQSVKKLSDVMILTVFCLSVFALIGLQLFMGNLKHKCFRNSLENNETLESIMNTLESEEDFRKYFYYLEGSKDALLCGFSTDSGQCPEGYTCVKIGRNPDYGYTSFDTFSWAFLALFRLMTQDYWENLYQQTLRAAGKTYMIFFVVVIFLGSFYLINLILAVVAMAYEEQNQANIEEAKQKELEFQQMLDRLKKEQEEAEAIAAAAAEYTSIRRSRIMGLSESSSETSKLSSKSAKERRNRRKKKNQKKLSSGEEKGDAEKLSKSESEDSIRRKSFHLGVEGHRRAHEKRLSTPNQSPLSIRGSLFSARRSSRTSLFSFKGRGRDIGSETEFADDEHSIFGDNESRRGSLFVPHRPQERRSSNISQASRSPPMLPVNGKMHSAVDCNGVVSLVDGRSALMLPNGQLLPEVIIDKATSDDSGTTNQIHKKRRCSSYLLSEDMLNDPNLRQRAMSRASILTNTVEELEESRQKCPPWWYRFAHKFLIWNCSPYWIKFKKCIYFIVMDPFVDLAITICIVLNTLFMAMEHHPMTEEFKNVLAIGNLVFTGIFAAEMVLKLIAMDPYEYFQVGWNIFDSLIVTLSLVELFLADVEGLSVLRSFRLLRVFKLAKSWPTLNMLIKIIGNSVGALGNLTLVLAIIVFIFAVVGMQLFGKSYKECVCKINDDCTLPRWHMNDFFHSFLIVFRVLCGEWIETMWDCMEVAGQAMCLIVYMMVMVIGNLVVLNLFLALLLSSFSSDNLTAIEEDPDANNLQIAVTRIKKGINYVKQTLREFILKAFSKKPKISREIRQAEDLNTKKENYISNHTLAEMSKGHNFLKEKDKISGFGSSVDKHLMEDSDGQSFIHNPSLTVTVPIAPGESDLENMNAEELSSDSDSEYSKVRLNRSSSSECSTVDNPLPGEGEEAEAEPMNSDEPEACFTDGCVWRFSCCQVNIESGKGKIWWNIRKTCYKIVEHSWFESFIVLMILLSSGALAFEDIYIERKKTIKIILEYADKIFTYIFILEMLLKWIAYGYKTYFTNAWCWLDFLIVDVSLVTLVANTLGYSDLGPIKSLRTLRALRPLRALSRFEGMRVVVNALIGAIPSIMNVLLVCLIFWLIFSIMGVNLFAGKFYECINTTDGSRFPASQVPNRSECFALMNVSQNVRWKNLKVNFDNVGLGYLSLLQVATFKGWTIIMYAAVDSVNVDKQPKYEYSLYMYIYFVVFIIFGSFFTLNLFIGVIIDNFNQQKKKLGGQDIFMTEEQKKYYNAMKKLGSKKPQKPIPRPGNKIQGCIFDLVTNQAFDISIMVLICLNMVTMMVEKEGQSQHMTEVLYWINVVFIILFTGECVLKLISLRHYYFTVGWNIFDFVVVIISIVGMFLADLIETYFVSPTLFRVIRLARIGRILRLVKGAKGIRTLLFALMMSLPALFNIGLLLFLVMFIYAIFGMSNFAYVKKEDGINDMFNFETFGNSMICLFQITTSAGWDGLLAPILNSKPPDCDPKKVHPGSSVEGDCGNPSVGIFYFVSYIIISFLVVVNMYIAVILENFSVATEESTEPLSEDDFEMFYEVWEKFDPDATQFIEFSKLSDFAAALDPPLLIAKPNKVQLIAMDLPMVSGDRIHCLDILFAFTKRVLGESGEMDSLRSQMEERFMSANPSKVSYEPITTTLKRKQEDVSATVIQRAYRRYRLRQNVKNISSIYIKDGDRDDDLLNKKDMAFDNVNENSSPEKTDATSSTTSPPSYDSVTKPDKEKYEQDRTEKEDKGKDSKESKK

Row | Compound | IC50 [1] [µM] | IC50 [2] [µM]
1 | CC1(C)C[C@]2(CC[C@@H](c3cc(-c4ccc(C(F)(F)F)cc4)ccn3)N2)C(=O)N1 [Example 47, (2S,5R)-8,8-Dimethyl-2-[4-[4-(trifluoromethyl)phenyl]-2-pyridyl]-1,7-diazaspiro[4.4]nonan-6-one hydrochloride] | 12.6 | 31.6
2 | O=C1NCCC[C@@]12CC[C@@H](c1cc(-c3ccc(C(F)(F)F)cc3)ccn1)N2 [Example 48, (2S,5R)-2-[4-(4-Trifluoromethyl-phenyl)-pyridin-2-yl]-1,7-diaza-spiro[4.5]decan-6-one hydrochloride] | 2 | 25.1
3 | O=C1NCCC[C@@]12CC[C@H](c1cc(-c3ccc(C(F)(F)F)cc3)ccn1)N2 [Example 49, (2R,5R)-2-[4-(4-Trifluoromethyl-phenyl)-pyridin-2-yl]-1,7-diaza-spiro[4.5]decan-6-one hydrochloride] | 3.98 | 50.1
4 | O=C1NCCC[C@]12CC[C@H](c1cc(-c3ccc(C(F)(F)F)cc3)ccn1)N2 [Example 50, (2R,5S)-2-[4-(4-Trifluoromethyl-phenyl)-pyridin-2-yl]-1,7-diaza-spiro[4.5]decan-6-one hydrochloride] | 0.251 | 2.51
5 | O=C1NCCC[C@]12CC[C@@H](c1cc(-c3ccc(C(F)(F)F)cc3)ccn1)N2 [Example 51, (25,5S)-2-[4-(4-Trifluoromethyl-phenyl)-pyridin-2-yl]-1,7-diaza-spiro[4.5]decan-6-one hydrochloride] | 5.01 | 25.1
6 | CN1CC[C@@]2(CC[C@H](c3cc(-c4ccc(C(F)(F)F)cc4)ccn3)N2)C1=O [Example 52, (2R,5S)-7-Methyl-2-[4-(4-trifluoromethyl-phenyl)-pyridin-2-yl]-1,7-diaza-spiro[4.4]nonan-6-one hydrochloride] | 6.31 | 25.1
7 | CN1CC[C@@]2(CC[C@H](c3cc(-c4ccc(C(F)(F)F)cc4)c(OC(C)(C)C)cn3)N2)C1=O [Example 62, (2R,5S)-2-[5-tert-Butoxy-4-[4-(trifluoromethyl)-phenyl]-2-pyridyl]-7-methyl-1,7-diazaspiro[4.4]nonan-6-one hydrochloride] | 2 | 79.4
8 | CN1CC[C@@]2(CC[C@@H](c3cc(-c4ccc(C(F)(F)F)cc4)c(OC(C)(C)C)cn3)N2)C1=O [Example 63, (2S,5S)-2-[5-tert-Butoxy-4-[4-(trifluoromethyl)-phenyl]-2-pyridyl]-7-methyl-1,7-diazaspiro[4.4]nonan-6-one hydrochloride] | 10 | 79.4
9 | CN1CC[C@]2(CC[C@@H](c3cc(-c4ccc(C(F)(F)F)cc4)c(OC(C)(C)C)cn3)N2)C1=O [Example 64, (2S,5R)-2-[5-tert-Butoxy-4-[4-(trifluoromethyl)-phenyl]-2-pyridyl]-7-methyl-1,7-diazaspiro[4.4]nonan-6-one hydrochloride] | 3.16 | 50.1
10 | CN1CC[C@]2(CC[C@H](c3cc(-c4ccc(C(F)(F)F)cc4)c(OC(C)(C)C)cn3)N2)C1=O [Example 65, (2R,5R)-2-[5-tert-Butoxy-4-[4-(trifluoromethyl)-phenyl]-2-pyridyl]-7-methyl-1,7-diazaspiro[4.4]nonan-6-one hydrochloride] | 1.58 | 31.6

Further lines, results first:

Row | IC50 [1] [µM] | IC50 [2] [µM] | Compound
11 | 39.8 | 100 | CN1CC[C@@]2(CC[C@@H](c3cc(-c4ccc(C(F)(F)F)cc4)ccn3)N2)C1=O [Example 53, (2S,5S)-7-Methyl-2-[4-(4-trifluoromethyl-phenyl)-pyridin-2-yl]-1,7-diaza-spiro[4.4]nonan-6-one hydrochloride]
12 | 39.8 | 63.1 | CN1CC[C@]2(CC[C@@H](c3cc(-c4ccc(C(F)(F)F)cc4)ccn3)N2)C1=O [Example 54, (2S,5R)-7-Methyl-2-[4-(4-trifluoromethyl-phenyl)-pyridin-2-yl]-1,7-diaza-spiro[4.4]nonan-6-one hydrochloride]
13 | 20 | 100 | CN1CC[C@]2(CC[C@H](c3cc(-c4ccc(C(F)(F)F)cc4)ccn3)N2)C1=O [Example 55, (2R,5R)-7-Methyl-2-[4-(4-trifluoromethyl-phenyl)-pyridin-2-yl]-1,7-diaza-spiro[4.4]nonan-6-one hydrochloride]
14 | 10 | 79.4 | Cc1cc(-c2ccc(F)cc2)cc([C@@H]2CC[C@]3(CCN(C)C3=O)N2)n1 [Example 56, (2S,5R)-2-[4-(4-Fluorophenyl)-6-methyl-2-pyridyl]-7-methyl-1,7-diazaspiro[4.4]nonan-6-one hydrochloride]
15 | 3.98 | 79.4 | Cc1cc(-c2ccc(F)cc2)cc([C@H]2CC[C@@]3(CCN(C)C3=O)N2)n1 [Example 57, (2R,5S)-2-[4-(4-Fluorophenyl)-6-methyl-2-pyridyl]-7-methyl-1,7-diazaspiro[4.4]nonan-6-one hydrochloride]
16 | 1.26 | 63.1 | CN1CC[C@@]2(CC[C@H](c3cc(-c4ccc(C(F)(F)F)cc4)c(F)cn3)N2)C1=O [Example 58, (2R,5S)-2-[5-Fluoro-4-[4-(trifluoromethyl)phenyl]-2-pyridyl]-7-methyl-1,7-diazaspiro[4.4]nonan-6-one hydrochloride]
17 | 3.16 | 100 | CN1CC[C@@]2(CC[C@@H](c3cc(-c4ccc(C(F)(F)F)cc4)c(F)cn3)N2)C1=O [Example 59, (2S,5S)-2-[5-Fluoro-4-[4-(trifluoromethyl)phenyl]-2-pyridyl]-7-methyl-1,7-diazaspiro[4.4]nonan-6-one hydrochloride]
18 | 3.98 | 79.4 | CN1CC[C@]2(CC[C@@H](c3cc(-c4ccc(C(F)(F)F)cc4)c(F)cn3)N2)C1=O [Example 60, (2S,5R)-2-[5-Fluoro-4-[4-(trifluoromethyl)phenyl]-2-pyridyl]-7-methyl-1,7-diazaspiro[4.4]nonan-6-one hydrochloride]
19 | 6.31 | 100 | CN1CC[C@]2(CC[C@H](c3cc(-c4ccc(C(F)(F)F)cc4)c(F)cn3)N2)C1=O [Example 61, (2R,5R)-2-[5-Fluoro-4-[4-(trifluoromethyl)phenyl]-2-pyridyl]-7-methyl-1,7-diazaspiro[4.4]nonan-6-one hydrochloride]
20 | 10 | 126 | CN1CC[C@@]2(CC[C@H](c3cc(-c4ccc(F)cc4)ccn3)N2)C1=O [Example 66, (2R,5S)-2-[4-(4-Fluorophenyl)-2-pyridyl]-7-methyl-1,7-diazaspiro[4.4]nonan-6-one hydrochloride]
21 | 3.98 | 31.6 | CN1CCC[C@@]2(CC[C@H](c3cc(-c4ccc(C(F)(F)F)cc4)ccn3)N2)C1=O [Example 67, (2R,5R)-7-Methyl-2-[4-(4-trifluoromethyl-phenyl)-pyridin-2-yl]-1,7-diaza-spiro[4.5]decan-6-one hydrochloride]
22 | 5.01 | 25.1 | CN1CCC[C@@]2(CC[C@@H](c3cc(-c4ccc(C(F)(F)F)cc4)ccn3)N2)C1=O [Example 68, (2S,5R)-7-Methyl-2-[4-(4-trifluoromethyl-phenyl)-pyridin-2-yl]-1,7-diaza-spiro[4.5]decan-6-one hydrochloride]
